These results are taken from patent US20030158250A1, “Agents correcting gene expression regulatory error” (priority 2000, published 2003).

What all share (format): cell-based
The test system of one test is interleukin-6 (IL-6). Description: TPA-induced IL-6 production in peritoneal macrophage (ELISA). Particulars: mouse peritoneal macrophage, final concentrations 20 μM and 10 μM, 14 hours, IL-6 in culture supernatant by ELISA. The protocol: Four milliliters of a 10% fetal bovine serum-containing RPMI 1640 medium (manufactured by Bio Whittaker, 12-702F) was intraperitoneally injected to ddy mouse (Nippon SLC, female, 7-weeks old), and the mouse was well massaged, and the medium was taken out to obtain peritoneal cells. The peritoneal cells were suspended in the 10% fetal bovine serum-containing RPMI 1640 medium so as to have a concentration of 10^6 cells/ml, and dispensed into 48-well microtiter plate in a volume of 500 μl each. The peritoneal cells were cultured at 37° C. for 2 hours in the presence of 5% CO2 gas. Thereafter, the culture supernatant was removed to give adherent cells to be used as peritoneal macrophage. To each well was freshly dispensed a Dulbecco's modified Eagle's medium (manufactured by Bio Whittaker; 12-917F) without phenol red containing 10% fetal bovine serum and 2 mM L-glutamine in a volume of 500 μl. […] The content of interleukin-6 (IL-6) in the culture supernatant was assayed by enzyme immuno-sandwich assay (ELISA: Matched antibody Pair SamplePak mouse IL-6, manufactured by Endogen). Here, the group with no addition of DGE and TPA aqueous solution (control) was set as a negative control, and the group with addition of TPA aqueous solution alone (control+TPA) was set as a positive control. In addition, all of the assays were carried out twice.

A further test concerns MIP1α mRNA. As to the kind of experiment: RT-PCR of MIP1α mRNA in monocytes. Particulars: human monocytes; for amplification of band ascribed to MIP1α mRNA, stimulant alone: LPS or TPA alone, 4 hours, RT-PCR. The method, then: (§1) Four-hundred milliliters of blood was collected from a human normal individual donor. The collected blood was diluted 2-folds with PBS(−), overlaid on Ficoll-paque (manufactured by Pharmacia), and centrifuged at 500×g for 20 minutes. The peripheral blood mononuclear cells (PBMCs) in the intermediate layer was collected with a pipette, and washed with RPMI 1640 medium (manufactured by Bio Whittaker). The collected PBMCs was suspended in a storage solution of 90% FCS (manufactured by JRH Biosciences)/10% dimethyl sulfoxide, and stored in liquid nitrogen. During the experiment, these stored PBMCs were rapidly melted in water bath at 37° C., and washed with RPMI 1640 medium containing 10 μg/ml Dnase (manufactured by Calbiochem). Thereafter, the number of living cells was calculated by trypan blue staining method, and subjected to each experiment.
(§2) PBMCs were suspended in RPMI 1640 medium containing 5% human serum of blood type-AB, 0.1 mM nonessential amino acid, 1 mM sodium pyruvate, 2 mM L-glutamine (hereinabove manufactured by Bio Whittaker), 10 mM HEPES (manufactured by nakalai tesque), and 1% streptomycin-penicillin (manufactured by Gibco BRL) (hereinafter simply referred to as “5HRPMI medium”) so as to have a concentration of 4×10^6 cells/ml. Thereafter, the suspension was spread on a 6-well cell culture plate (manufactured by Falcon) in a volume of 3 ml/well, and the cells were incubated in a wet-type incubator at 37° C. and 5% CO2 for 1.5 hours. After 1.5 hours, the non-adherent cells were removed by suction, and each well was washed with RPMI 1640 medium, and 2 ml of the 5HRPMI medium was added to the wells, to give monocytes.
To the monocytes obtained above was added in each well 8 μl of an aqueous DGE solution, or 8 μl of water as a control, and the cells were incubated in a wet-type incubator at 37° C. and 5% CO2 for 5 hours. Thereafter, with addition of 2 μl of a 1 μg/ml aqueous LPS solution or 2 μl of a 25 μM TPA dimethyl sulfoxide solution to each well, or with addition of neither of these substances thereto, the cells were cultured for additional 4 hours. Thereafter, RNA was prepared from each cell in accordance with the description of the kit using RNeasy Mini Kit (manufactured by QIAGEN, 74104). The group with addition of water alone or the aqueous DGE solution alone to the cells was set as a negative control, and the group with addition of water and the aqueous LPS solution or the aqueous TPA solution to the cells was set as a positive control. […]

The test system of another test is RANTES mRNA. Description: RT-PCR of RANTES mRNA in monocytes. As to conditions: human monocytes. The method, then: as §1
PBMCs were suspended in RPMI 1640 medium containing 5% human serum of blood type-AB, 0.1 mM nonessential amino acid, 1 mM sodium pyruvate, 2 mM L-glutamine (hereinabove manufactured by Bio Whittaker), 10 mM HEPES (manufactured by nakalai tesque), and 1% streptomycin-penicillin (manufactured by Gibco BRL) (hereinafter simply referred to as “5HRPMI medium”) so as to have a concentration of 4×10^6 cells/ml. […]

In the next test the test system is interleukin-1α (IL-1α). Description: RT-PCR expression level of IL-1α gene in monocytes. As to conditions: human monocytes, 30 PCR cycles. The method, then:
as §1, §2
(§3) To the monocytes obtained above was added in each well 8 μl of an aqueous DGE solution, or 8 μl of water as a control, and the cells were incubated in a wet-type incubator at 37° C. and 5% CO2 for 5 hours. Thereafter, with addition of 2 μl of a 1 μg/ml aqueous LPS solution or 2 μl of a 25 μM TPA dimethyl sulfoxide solution to each well, or with addition of neither of these substances thereto, the cells were cultured for additional 4 hours. Thereafter, RNA was prepared from each cell in accordance with the description of the kit using RNeasy Mini Kit (manufactured by QIAGEN, 74104). The group with addition of water alone or the aqueous DGE solution alone to the cells was set as a negative control, and the group with addition of water and the aqueous LPS solution or the aqueous TPA solution to the cells was set as a positive control.
(§4) A liquid mixture having a total volume of 60 μl of 0.5 μg of RNA prepared above, 10 mM Tris-HCl (pH 8.3), 50 mM KCl, 5 mM MgCl2, 1 mM dNTP mixtures, 150 pmol of Random 6 mers, 60 U Ribonuclease Inhibitor (manufactured by Takara Shuzo Co., Ltd., 2310A), and 15 U Reverse Transcriptase XL (AMV) (manufactured by Takara Shuzo Co., Ltd., 2620A) were incubated at 30° C. for 10 minutes and thereafter at 42° C. for 1 hour using a thermal cycler (GeneAmp PCR System 9600, manufactured by Applied Biosystems), and the mixture was heated at 99° C. for 5 minutes to deactivate the enzyme, to give cDNA.
(§5) Oligonucleotide primers for reaction of PCR were designed based on mRNA nucleotide sequence of each gene listed in the following tables, and synthesized in the same manner as above. In Tables 4 and 5, each gene evaluated in this Example, GenBank Accession NO, the name of oligonucleotide primers and SEQ ID NOs of the primers in Sequence Listing were listed. […]

Test [1] concerns matrix metalloproteinase-9 (MMP-9). Description: RT-PCR expression level of MMP-9 gene in monocytes. Particulars: human monocytes, 30 PCR cycles. The method, then: as §1, §2, §3, §4, §5
The mark [2] stands for this setting: DGE 5 hours, then LPS 4 hours, RT-PCR band.
[3] abbreviates: T + D: DGE and TPA, TPA alone +.
[4] abbreviates: substance added alone, Con. (water) +/−.
[5] abbreviates: substance added alone, Con. (water) −.

With `O=C1C=CC(CO)OC1O` [DGE, L-glycero-1,5-epoxy-1αβ,6-dihydroxy-cis-hex-3-en-2-one], in the test with interleukin-6 (IL-6), the “inhibition of TPA-induced IL-6 production” value was “inhibition of TPA-induced IL-6 production was found DGE-concentration dependently”. Also, the “induction of MIP1α mRNA by LPS, effect of DGE” value with MIP1α mRNA (setting [2]) was “inhibited”. Besides, the “induction of MIP1α mRNA by TPA, effect of DGE” value with MIP1α mRNA (DGE 5 hours, then TPA 4 hours, RT-PCR band) was “inhibited”. Also, the “induction of RANTES mRNA by LPS, effect of DGE” value in the test with RANTES mRNA (setting [2]) is “inhibited”. Further, the “expression level of IL-1α gene” value in the test with interleukin-1α (IL-1α) (L + D: DGE and LPS, LPS alone +++) is on record as “+/−”; with interleukin-1α (IL-1α) (setting [3]) it was “−”; in the test on interleukin-1α (IL-1α) (setting [4]) it was “−”. The “expression level of MMP-9 gene” value in test [1] (L + D: DGE and LPS, LPS alone −) is “−”; in test [1] (setting [3]), “−”; in test [1] (setting [5]), “−”.
For “12-o-tetradecanoylphorbol 13-acetate [TPA, reference compound]”, the “amplification of band ascribed to MIP1α mRNA, stimulant alone” value with MIP1α mRNA is recorded as “induction”. Also, in the test with interleukin-1α (IL-1α) (setting [4]), the “expression level of IL-1α gene” value was “+”. Also, the “expression level of MMP-9 gene” value in test [1] (setting [5]) is “+”.
For “lipopolysaccharide [LPS, reference compound]”, in the test with MIP1α mRNA, the “amplification of band ascribed to MIP1α mRNA, stimulant alone” value is “induction”. Further, the “amplification of band ascribed to RANTES mRNA, stimulant alone” value in the test with RANTES mRNA (LPS alone, 4 hours, RT-PCR) was “induction”. For the same molecule, the “expression level of IL-1α gene” value with interleukin-1α (IL-1α) (setting [4]) is given as “+++”. Besides, the “expression level of MMP-9 gene” value in test [1] (setting [5]) is on record as “−”.
